From PMC10877564, “Activity of Gut-Derived Nisin-like Lantibiotics against Human Gut Pathogens and Commensals” (ACS Chemical Biology, 2024) come the findings set out here.

Positions of bridges follow the written chain, without caps; N, C: chain ends. Non-standard residues stand in square brackets, D forms with d. No end group written: not given here. Abu = CC[C@H](N)C(=O)O; Dhb = C/C=C(\N)C(=O)O; Dha = C=C(N)C(=O)O

Common to all, as to test: MIC assay, anaerobic broth dilution
Common to all, as to details: BHIS, 37 °C, 48 h, 3-fold serial dilution
(Broth dilution looks for growth in wells or tubes with falling amounts of substance.)

In one assay the test system is S. aureus USA300 (MRSA). The format is cell-based, Staphylococcus aureus. The source says:
Next, we set out to test the antimicrobial activities of these purified lantibiotics against a panel of Gram-positive bacteria that are representatives of some of the most prevalent human pathogens: VRE, Methicillin-resistant S. aureus USA300 (MRSA), Methicillin-resistant Staphylococcus epidermidis SK135 (MRSE), Listeria monocytogenes 10403S, and Clostridioides difficile VPI10463. We examined the growth of bacteria in a 96-well plate under a concentration gradient of lantibiotics under anaerobic conditions (Figure S2B).
Elution Buffer (4 M guanidine hydrochloride, 20 mM Tris HCl, pH 7.5 at 25 °C, 100 mM NaCl, 1 M imidazole). Peptides eluted from the Ni resin were concentrated and desalted using 3 kDa Amicon filters (Millipore). For leader peptide removal, the peptide (1:20 trypsin to peptide) was incubated with the trypsin protease in 50 mM Tris-HCl, pH 8 overnight at 37 °C. Lastly, the core peptides were further purified with HPLC using an Agilent 1200 instrument (Agilent) as specified […]
in general methods. […]
For broth cultures, isolates were grown in pre-reduced BHI supplemented with 5 g/L yeast extract (Difco, BD) and 0.1% L-cysteine under anaerobic condition. […]
(§1) All MIC assays were performed under anaerobic condition. […] Lantibiotics were dissolved in DPBS, and concentrations were determined by BCA assay (Pierce) according to the manufacturer’s protocol. […]

The next assay relates to E. ramosum MSK.23.96. Format: cell-based, Erysipeloclostridium ramosum.
From the text: (§2) Antibiotic treatment may result in collateral damage to commensal bacteria in the human microbiome, leading to dysbiosis and susceptibility to various diseases.[44] How lantibiotics impact Gram-positive commensals from the human gut has remained unclear. Therefore, we performed antimicrobial activity tests of these lantibiotics against selected Gram-positive human gut commensals, most of which belong to the Lachnospiraceae family, one of the most abundant bacterial families in the human gut.[27] In general, human gut commensals were more susceptible to the set of investigated lantibiotics compared to pathogens (Figure 3).
(§3) Elution Buffer (4 M guanidine hydrochloride, 20 mM Tris HCl, pH 7.5 at 25 °C, 100 mM NaCl, 1 M imidazole). Peptides eluted from the Ni resin were concentrated and desalted using 3 kDa Amicon filters (Millipore). For leader peptide removal, the peptide (1:20 trypsin to peptide) was incubated with the trypsin protease in 50 mM Tris-HCl, pH 8 overnight at 37 °C. Lastly, the core peptides were further purified with HPLC using an Agilent 1200 instrument (Agilent) as specified in general methods. About 1.5 mg recombinant peptide was obtained after HPLC purification per […]
as §1

For a further assay, the system named is B. obeum MSK.18.40. Format: cell-based, Blautia obeum.
From the text: as §2, with “3). […]” for “3).”
(§4) Isolation of human gut commensal bacteria
(§5) Isolation and growth of commensal bacteria was done as previously reported.5 Briefly, fresh donor fecal samples were transferred into an anaerobic chamber (Coy Labs) within 1 h of collection. The anaerobic chamber was maintained using a gas mix consisting of 5% hydrogen, 5% carbon dioxide and 90% nitrogen, and hydrogen was maintained at ~3.0% using an anaerobic gas infuser. […]
as §1

In another assay the test system is B. luti MSK.20.18. The format is cell-based, Blautia luti.
From the text: as §2, with “3). […]” for “3).”
as §4, §5, §1

The test system of assay [1] is D. formicigenerans MSK.17.61. The format is cell-based, Dorea formicigenerans.
From the text: as §2, §3, §1

For the substance “nisin A (I[Dhb]AI[Dha]LC[Abu]PGCK[Abu]GALMGCNMK[Abu]A[Abu]CHCSIHV[Dha]K; thioether 8-11, 13-19, 23-26, 25-28, 3-7; UniProt P13068 24-57, looked up) [prototypical class I lantibiotic produced by L. lactis, food preservative; commercial nisin A]”, the “nisin A MIC” value in the assay on S. aureus USA300 (MRSA) stood at 2.67 µM; with E. ramosum MSK.23.96 it was 0.889 µM; in the assay with B. obeum MSK.18.40 it was 0.0110 µM; in the assay on B. luti MSK.20.18 it was 0.0329 µM; in assay [1] it was 0.0110 µM.
